What was measured:
[1] = rat pharmacokinetics; assay type: in vivo; settings: Sprague-Dawley, plasma
Method: Male and Female Sprague-dawley rats with jugular vein cannulation were obtained from Charles River Laboratories. All rats were maintained under standard conditions with access to food and water ad libitum. For intravenous (i.v.) dosing, CC-509 was dissolved in DMA/PEG400 (15/85, V/V). A dose of 2 mg/kg was administered to three male rats via jugular vein cannula with a dosing volume of 2 mL/kg followed by flushing 0.5 mL saline through the cannula. Blood were collected at 0.083, 0.25, 0.5, 1, 2, 4, 6, 8 and 24hr post dose. Plasma samples were separated by centrifugation of blood and stored at -20°C until analysis. For oral administration, four female rats (220–250g) were fasted for 12hr but allowed to access water prior to the dosing. CC-509 was formulated in 20% Captisol as a solution and was administered to the rats at 10 mg/kg by oral gavage with a dosing volume of 5mL/kg. Food was returned to the rats 2hr post dosing. Blood samples were collected at 0.5, 1, 2, 4, 6, 8 and 24hr post dose. Plasma samples were separated by centrifugation of blood and stored at -20°C until analysis. Plasma concentrations of CC-509 were quantified by a LC/MS/MS method. A total of 50 microliters (μL) of each plasma sample was extracted with three volumes of mixed solvent (methanol:acetonitrile (1:1). The extracted samples were filtered through a filtration plate (0.45μm, Varian, Inc.) and the filtrates were injected onto a LC-MS system. The LC-MS system consisted of a ThermoScientific (Waltham, MA) TSQ Quantum Ultra™ Mass Spectrometer coupled with a Thermo Accela™ ultra-high pressure liquid chromatogram (UPLC) system. Separation was achieved on a Thermo Hypersil Gold™ column (50 x 2.1 mm, 1.9 μm) by running a linear gradient of mobile phase at a flow rate of 0.5 mL/min. Mobile phase A and B consisted of 0.1% formic acid in water and 0.1% formic acid in methanol, respectively. Quantitation was performed using selected reaction monitoring (SRM) at the transition m/z 448 to m/z 364 for CC-509. PK parameters in plasma were estimated by WinNonLin software (Pharsight, Princeton, NJ) using non-compartmental analysis. For i.v. dosing, plasma clearance (CLp), volume distribution at steady-state (Vss) and mean residence time (MRT) were estimated. For oral administration, the maximum plasma concentration (Cmax), the time when the maximum plasma concentration is reached (Tmax) and area under the curve from 0 to infinity (AUC0-inf) were calculated.

[2] = system: rat passive cutaneous anaphylaxis model; assay: rat passive cutaneous anaphylaxis (PCA) model; assay type: in vivo
Method: On day 0, male CD-IGS rats (170 – 190g; Charles River Laboratories) were anesthetized with isofluorane, their dorsal region shaved and 50 μl Anti-DNP-IgE (Clone SPE-7, Sigma, St. Louis, MO) that had been diluted 1:1000 in saline was injected via the intradermal route at 3 individual spots along the right side of the back. Saline was injected via the intradermal route at 3 individual spots along the left side of the back as a sham control. Twenty-four hours later, 200 μl of BSA-DNP (Calbiochem, San Diego, CA), prepared (1 mg prepared in a 2% solution of Evans blue dye: Sigma Chemicals, St. Louis, MO) was injected via the IV route via the tail vein. Thirty minutes after the BSA-DNP challenge the experiment was terminated and skin samples from the middle of each injection site taken for Evans blue dye measurement at an OD measurement at 620nm on a plate reader following incubation (2h at 90°C) and homogenization in formamide (Sigma Chemicals, St. Louis, MO). Vehicle (20% Captisol® (Captisol), PO), the positive control (Cromolyn: Sigma Chemicals, St. Louis, MO 100mg/kg, 2mL/kg, IV) or CC0484509 (3 and 10mg/kg, PO) were dosed 1h prior to the IV challenge with BSA-DNP.
For the TEL-Syk assay, the intensity values for the 700 and 800 channel were exported as text files in ActivityBase (IDBS, Guildford, UK) to derive the ratios that reflect kinase activity. For LAD2 experiments, enzyme activity values were exported as text files into ActivityBase to calculate “percent release” according to the formula: 100* supernatant OD405/ (supernatant OD405 + (pellet OD405*pellet dilution factor)). For the basophil and B-cells assays, flow cytometry data was exported from the FACS Array and processed using FloJo software package (TreeStar, Inc., Ashland, Oregon). For the JAK2 HEL and Ramos NFAT β-lactamase assays, the fluorescence values obtained at 460 nm and 530 nm were exported into ActivityBase to calculate response ratios. For the neutrophil, macrophage, KDR, and JAK1/3 assays, raw values were exported into ActivityBase to calculate percent inhibition. All IC50 calculations were generated using XLfit (IDBS, Guildford, UK) algorithm 205 within Excel. For PCA, the OD from the saline injected site was subtracted from the OD from the anti-DNP IgE injected site. Evans blue dye extravasation was expressed as mean ± SEM and % inhibition for the test article groups was normalized to the cromolyn positive control. For the CIA model paw measurements (left and right ankle diameter) were taken for each individual animal and averaged. The mean data from each group was plotted and either the AUC(day 11–18) or % inhibition on day 18 was calculated. Data is expressed as mean ± SEM of each group with n = 6–12. […]

## c1cc(CC2CCOCC2)n2nc(Nc3ccc4c(NC5CCOCC5)n[nH]c4c3)nc2c1 [CC-509, [3-(2H-3,4,5,6-tetrahydropyran-4-ylamino)(1H-indazol-6-yl)][5-(2H-3,4,5,6-tetrahydropyran-4-ylmethyl)(2H-1,2,4-triazolo[1,5-a]pyridin-2-yl)]amine]
[1]; iv, i.v. 2 mg/kg, male rats
  AUC(0-inf): 4.02 ± 0.7 µM·h
[1]; iv, i.v. 2 mg/kg, male rats, read-out: clearance (CL)
  clearance: 18.9 ± 3.5 mL/min/kg
[1]; iv, i.v. 2 mg/kg, male rats, read-out: mean residence time (MRT)
  MRT: 2.3 ± 1.5 h
[1]; iv, i.v. 2 mg/kg, male rats, read-out: volume of distribution (Vss)
  Vd: 2.8 ± 2.36 L/kg
[1]; oral 10 mg/kg, female rats
  AUC(0-inf): 12 ± 1 µM·h
  Cmax: 4.4 ± 0.2 µM
[1]; oral 10 mg/kg, female rats, read-out: time of maximal plasma concentration (converted)
  Tmax: 0.5 h
[2]; 3 mg/kg PO, not statistically significant
  inhibition of skin edema, normalized to cromolyn: 26%
[2]; 10 mg/kg PO, p<0.01
  inhibition of skin edema, normalized to cromolyn: 81%
[2]; Rattus norvegicus, PCA model, dye extravasation
  ED50: ~5 mg/kg

Reference: PMC4710522, “A Novel Triazolopyridine-Based Spleen Tyrosine Kinase Inhibitor That Arrests Joint Inflammation” (PLoS ONE, 2016)
